Measurements published in patent US20250064890A1, “PROTEIN COMPOSITIONS FOR THE TREATMENT OF INFLAMMATORY DISEASES” (Unichem Laboratories Limited, priority 2021, published 2025).

How the values were obtained:
Type in all cases: cell-based, human
[1] = tested on: oral (buccal) mucosa cells (TR146); test: Restoration of mitochondrial membrane potential (JC-1) against 5-FU induced damage; details: for MMP: mitochondrial membrane potential, red/green JC-1 fluorescence ratio
Description: (§1) Oral buccal mucosal cells (TR146) were incubated overnight in 5% CO2 incubator at 37° C. for 24 h. […] After 24 h of treatment, cells were exposed to damage (5-FU 5 mM) for 1.25 h for chemotherapy induced inflammation and exposed to gamma radiation (3.5 kGy) using Cobalt 60 for radiation induced inflammation. After the exposure, the anti-apoptotic effect of SEQ ID NO 2 was determined by restoration of mitochondrial membrane depolarization by JC-1 staining and reduction in apoptotic cell populations (Annexin positive and subG0/G1 cells in cell cycle analysis).
After incubation, the supernatants were discarded and 100 μl of JC1-dye solution (prepared by diluting 1 mM DMSO stock into 10 μM in 1×PBS) was added to each well. The cells were then incubated with the dye in CO2 incubator at 37° C. for 15 min, after which the supernatant was removed, and the cells were washed twice with 1×PBS. 100 μl of 1×PBS was finally added to each well. Red fluorescence (excitation 550 nm, emission 600 nm) and green fluorescence (excitation 485 nm, emission 535 nm) were measured using Biotek Synergy HT plate reader. The mitochondrial membrane potential (Δψm) was calculated as the ratio of intensity of red fluorescence to intensity of green fluorescence.
The percentage increase/restoration in mitochondrial membrane potential (MMP) was calculated as: % Increase=[(R−X)/R]*100 • Where, X=Δψm corresponding to TI+5-FU treated cells or TI+radiation treated cells; R=Δψm corresponding to control cells (FU damaged or Radiation damaged alone)

[2] = tested on: oral (buccal) mucosa cells (TR146); test: Annexin positive cell population against radiation damage; details: for % Apoptotic cells: Annexin positive
Description: as §1
To determine the reduction in apoptotic cell populations using annexin-v staining cells were gently harvested into pre-labeled sterile centrifuge tubes and centrifuged at 300×g for 5-7 min. Supernatant were discarded and the pellet was resuspended in 200 μl of fresh culture medium. 100 μl of cell suspension was transferred into pre-labeled sterile centrifuge tubes. 100 μl of Annexin-V reagent was added to each tube and incubated for 30 min at RT in dark. Cells stained for Annexin-V were then transferred into 96-well plates and acquired on flow cytometer (Guava technologies). Percentage of Annexin-V positive cells was calculated as follows:
={[% Annexin positive cells in 5-FU or radiation alone]−[% Annexin positive cells in (TI+5-FU) or (TI+radiation)]/% Annexin positive cells in 5-FU or radiation alone}*100

[3] = tested on: IL-12/IL-23p40; test: Multiplex analysis, chemotherapy (5-FU), TR146
Description: (§2) Oral buccal mucosal cells (TR146) cells were incubated overnight at 37° C. in 5% CO2 incubator. […] The cells were then stimulated with 5-FU (10 mM) for another 24h for chemotherapy and with gamma radiation (3.5 kGy) using Cobalt 60 for radiotherapy. After 24 h, cell culture supernatants were collected from each well and stored at −20° C. till multiplex analysis. For NF-kB estimations, cell lysates were prepared. Levels of biomarkers were estimated using Magpix® multiplex machine. The cells treated with Amifostine (along with 5-FU or radiation) were considered as positive control (PC). Untreated cells (5-FU or radiation alone treated) were used as negative control (NC).
(§3) The percent modulation in each sample was determined as follows:
(§4) [{Concentration of biomarkers (pg/ml) in Control cells (5-FU or radiation alone treated)−Concentration of biomarkers (pg/ml) in SEQ ID NO: 2+5-FU or radiation treated cells)}/Concentration of biomarkers (pg/ml) in Control cells (5-FU or radiation alone treated)]*100

[4] = tested on: IL-1β; test: Multiplex analysis, chemotherapy (5-FU), TR146
Description: as §2, §3, §4

[5] = tested on: IL-6; test: Multiplex analysis, chemotherapy (5-FU), TR146
Description: as §2, §3, §4

[6] = tested on: MMP-3; test: Multiplex analysis, chemotherapy (5-FU), TR146
Description: as §2, §3, §4

[7] = tested on: TNF-α; test: Multiplex analysis, chemotherapy (5-FU), TR146
Description: as §2, §3, §4

[8] = tested on: VEGF; test: Multiplex analysis, chemotherapy (5-FU), TR146
Description: as §2, §3, §4

[9] = tested on: CCL-2; test: Multiplex analysis, radiotherapy, TR146
Description: as §2, §3, §4

[10] = tested on: IL-1β; test: Multiplex analysis, radiotherapy, TR146
Description: as §2, §3, §4

[11] = tested on: IL-6; test: Multiplex analysis, radiotherapy, TR146
Description: as §2, §3, §4

[12] = tested on: MMP-3; test: Multiplex analysis, radiotherapy, TR146
Description: as §2, §3, §4

[13] = tested on: MMP-8; test: Multiplex analysis, radiotherapy, TR146
Description: as §2, §3, §4

[14] = tested on: RAGE; test: Multiplex analysis, radiotherapy, TR146
Description: as §2, §3, §4

[15] = tested on: TNF-α; test: Multiplex analysis, radiotherapy, TR146
Description: as §2, §3, §4

[16] = tested on: VEGF; test: Multiplex analysis, radiotherapy, TR146
Description: as §2, §3, §4

[17] = tested on: NF-kB; test: Multiplex analysis, radiotherapy, TR146 cell lysates
Description: as §2, §3, §4

[18] = 0.1 μg/ml + Radiation (3.5 kGy)

**Q.** What does the source list for `NCCCNCCSP(=O)(O)O` [Amifostine, reference compound]?
**A.** % Increase in MMP (with respect to control) ([1]; 1 μg/ml + 5FU): 68.7%; MMP ([1]; 1 μg/ml + 5FU): 14.3; % Increase in MMP (with respect to control) ([1]; 5 μg/ml + 5FU): 64.9%; MMP ([1]; 5 μg/ml + 5FU): 14; % Increase in MMP (with respect to control) ([1]; 10 μg/ml + 5FU): 85.3%; MMP ([1]; 10 μg/ml + 5FU): 15.7; % Increase in MMP (with respect to control) ([1]; 25 μg/ml + 5FU): 90%; MMP ([1]; 25 μg/ml + 5FU): 16.1; % Increase in MMP (with respect to control) ([1]; 50 μg/ml + 5FU): 105.2%; MMP ([1]; 50 μg/ml + 5FU): 17.4; % Decrease in Apoptotic cells (with respect to radiation control) [2, 18]: 47.3%; % Apoptotic cells [2, 18]: 7.2%; % Decrease in Apoptotic cells (with respect to radiation control) ([2]; 1 μg/ml + Radiation (3.5 kGy)): 32.6%; % Apoptotic cells ([2]; 1 μg/ml + Radiation (3.5 kGy)): 9.2%; % Decrease in Apoptotic cells (with respect to radiation control) ([2]; 10 μg/ml + Radiation (3.5 kGy)): 63%; % Apoptotic cells ([2]; 10 μg/ml + Radiation (3.5 kGy)): 5.1%; Percentage Inhibition IL-12/IL-23p40 ([3]; 1 μg/ml + 5-FU (10 mM)): 0%; Percentage Inhibition IL-12/IL-23p40 ([3]; 10 μg/ml + 5-FU (10 mM)): −2.1%; Percentage Inhibition IL-12/IL-23p40 ([3]; 50 μg/ml + 5-FU (10 mM)): 13.4%; Percentage Inhibition IL-1β ([4]; 1 μg/ml + 5-FU (10 mM)): 14.2%; Percentage Inhibition IL-1β ([4]; 10 μg/ml + 5-FU (10 mM)): 19.5%; Percentage Inhibition IL-1β ([4]; 50 μg/ml + 5-FU (10 mM)): 46.6%; Percentage Inhibition IL-6 ([5]; 1 μg/ml + 5-FU (10 mM)): 7.2%; Percentage Inhibition IL-6 ([5]; 10 μg/ml + 5-FU (10 mM)): 8.9%; Percentage Inhibition IL-6 ([5]; 50 μg/ml + 5-FU (10 mM)): 35.2%; Percentage Inhibition MMP-3 ([6]; 1 μg/ml + 5-FU (10 mM)): 22.6%; Percentage Inhibition MMP-3 ([6]; 10 μg/ml + 5-FU (10 mM)): 23.4%; Percentage Inhibition MMP-3 ([6]; 50 μg/ml + 5-FU (10 mM)): 26.8%; Percentage Inhibition TNF-α ([7]; 1 μg/ml + 5-FU (10 mM)): 10%; Percentage Inhibition TNF-α ([7]; 10 μg/ml + 5-FU (10 mM)): 13.3%; Percentage Inhibition TNF-α ([7]; 50 μg/ml + 5-FU (10 mM)): 10%; Percentage Inhibition VGEF ([8]; 1 μg/ml + 5-FU (10 mM)): 27.9%; Percentage Inhibition VGEF ([8]; 10 μg/ml + 5-FU (10 mM)): 35.4%; Percentage Inhibition VGEF ([8]; 50 μg/ml + 5-FU (10 mM)): 39.6%; Percentage Inhibition CCL-2 [9, 18]: 23.1%; Percentage Inhibition CCL-2 ([9]; 10 μg/ml + Radiation (3.5 kGy)): 0.1%; Percentage Inhibition IL-1β [10, 18]: 10.7%; Percentage Inhibition IL-1β ([10]; 10 μg/ml + Radiation (3.5 kGy)): 12.1%; Percentage Inhibition IL-6 [11, 18]: 14.2%; Percentage Inhibition IL-6 ([11]; 10 μg/ml + Radiation (3.5 kGy)): 1.3%; Percentage Inhibition MMP-3 [12, 18]: 51.9%; Percentage Inhibition MMP-3 ([12]; 10 μg/ml + Radiation (3.5 kGy)): 47.4%; Percentage Inhibition MMP-8 [13, 18]: 3.6%; Percentage Inhibition MMP-8 ([13]; 10 μg/ml + Radiation (3.5 kGy)): 13%; Percentage Inhibition RAGE [14, 18]: 45.1%; Percentage Inhibition RAGE ([14]; 10 μg/ml + Radiation (3.5 kGy)): 40.3%; Percentage Inhibition TNF-α [15, 18]: 49.3%; Percentage Inhibition TNF-α ([15]; 10 μg/ml + Radiation (3.5 kGy)): 44.3%; Percentage Inhibition VGEF [16, 18]: 10.3%; Percentage Inhibition VGEF ([16]; 10 μg/ml + Radiation (3.5 kGy)): 7.2%; Percentage Inhibition NF-kB [17, 18]: 15.8%; Percentage Inhibition NF-kB ([17]; 10 μg/ml + Radiation (3.5 kGy)): 17.7%
